The subject of this test is CD8F1 mice, subcutaneous mammary adenocarcinoma, T/C%. Nature of the test: NCI In Vivo Anticancer Drug Screen. Data for tumor model Mammary Adenocarcinoma CD8F1 (subcutaneous) in CD8F1. As to conditions: higher = larger tumour. A digest of the protocol: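 Ratio of treated to vehicle-control outcome, based on either survival or tumor size, in mice bearing transplantable tumors given the test compound.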

Where [1] appears, read: endpoint: median tumor weight (est.), dose: 12.5 mg/kg/injection, schedule: Q07DX005 (ip), vehicle: Klucel (hydroxypropylcellulose) (HPC).
Where [2] appears, read: endpoint: median tumor weight (est.), dose: 100.0 mg/kg/injection, schedule: Q07DX005 (ip), vehicle: Klucel (hydroxypropylcellulose) (HPC).
Setting [3] is: endpoint: median tumor weight (est.), dose: 400.0 mg/kg/injection, schedule: Q07DX005 (ip), vehicle: Klucel (hydroxypropylcellulose) (HPC).
[4] abbreviates: endpoint: median tumor weight (est.), dose: 200.0 mg/kg/injection, schedule: Q07DX005 (ip), vehicle: Klucel (hydroxypropylcellulose) (HPC).

The results in this text go back to PubChem BioAssay AID220 (DTP/NCI, 2004).

The structures appear in SMILES notation. Several values for one entry are separate records, joined by “and”; a condition that tells them apart may be missing. Identical values can stand only once. Records with an inconclusive call do not appear.

`c1cc[c]([Sn]([NH]c2ncnc3[nH]cnc23)([NH]c2ncnc3[nH]cnc23)[c]2ccccc2)cc1`: the T/C is 101 % of control (endpoint: median tumor weight change, dose: 125.0 mg/kg/injection, schedule: Q01DX001 (ip), vehicle: suspension in saline); 61 % of control (endpoint: median tumor weight change, dose: 250.0 mg/kg/injection, schedule: Q01DX001 (ip), vehicle: suspension in saline); 41 % of control (endpoint: median tumor weight change, dose: 500.0 mg/kg/injection, schedule: Q01DX001 (ip), vehicle: suspension in saline); 42 % of control (endpoint: median tumor weight change, dose: 1000.0 mg/kg/injection, schedule: Q01DX001 (ip), vehicle: suspension in saline).

As for `Nc1ccccc1N`, the T/C was 117 % of control under setting [1]; 155 % of control (endpoint: median tumor weight (est.), dose: 25.0 mg/kg/injection, schedule: Q07DX005 (ip), vehicle: Klucel (hydroxypropylcellulose) (HPC)); 122 % of control under setting [2]; 35 % of control under setting [3].

As to `COCC(O)Cn1ccnc1[N+](=O)[O-]` (centres undefined), the T/C was 101 % of control (endpoint: median tumor weight (est.), dose: 8.0 mg/kg/injection, schedule: Q07DX005 (ip), vehicle: Klucel (hydroxypropylcellulose) (HPC)); 183 % of control (endpoint: median tumor weight (est.), dose: 8.0 mg/kg/injection, schedule: Q07DX005 (ip), vehicle: saline); 124 % of control (endpoint: median tumor weight (est.), dose: 16.0 mg/kg/injection, schedule: Q07DX005 (ip), vehicle: Klucel (hydroxypropylcellulose) (HPC)); 256 % of control (endpoint: median tumor weight (est.), dose: 16.0 mg/kg/injection, schedule: Q07DX005 (ip), vehicle: saline); 256 % of control (endpoint: median tumor weight (est.), dose: 32.0 mg/kg/injection, schedule: Q07DX005 (ip), vehicle: saline); 74 % of control (endpoint: median tumor weight (est.), dose: 64.0 mg/kg/injection, schedule: Q07DX005 (ip), vehicle: Klucel (hydroxypropylcellulose) (HPC)). In addition, the T/C runs as follows: (endpoint: median tumor weight (est.), dose: 64.0 mg/kg/injection, schedule: Q07DX005 (ip), vehicle: saline) 249 % of control; (endpoint: median tumor weight (est.), dose: 128.0 mg/kg/injection, schedule: Q07DX005 (ip), vehicle: Klucel (hydroxypropylcellulose) (HPC)) 88 % of control; (endpoint: median tumor weight (est.), dose: 128.0 mg/kg/injection, schedule: Q07DX005 (ip), vehicle: saline) 488 % of control; (endpoint: median tumor weight (est.), dose: 256.0 mg/kg/injection, schedule: Q07DX005 (ip), vehicle: Klucel (hydroxypropylcellulose) (HPC)) 121 % of control; (endpoint: median tumor weight (est.), dose: 256.0 mg/kg/injection, schedule: Q07DX005 (ip), vehicle: saline) 108 % of control.

Take `CC(=O)OCc1cc(=O)n(C)c2c3c4c(cc12)c(C)cc(=O)n4CO3`: the T/C is 42 % of control (endpoint: median tumor weight (est.), dose: 6.25 mg/kg/injection, schedule: Q07DX005 (ip), vehicle: Klucel (hydroxypropylcellulose) (HPC)); 66 % of control and 78 % of control under setting [1]; 19 % of control and 43 % of control under setting [2]; 22 % of control and 26 % of control under setting [4].

As to `Nc1nc2c(ncn2C2OC(CO)C(O)C2N)c(=O)[nH]1` (centres undefined), the T/C (endpoint: median tumor weight (est.), dose: 4.5 mg/kg/injection, schedule: Q07DX005 (ip), vehicle: saline with Tween-80) was 79 % of control; the T/C (endpoint: median tumor weight (est.), dose: 9.0 mg/kg/injection, schedule: Q07DX005 (ip), vehicle: saline with Tween-80) was 99 % of control; the T/C (endpoint: median tumor weight (est.), dose: 36.0 mg/kg/injection, schedule: Q07DX005 (ip), vehicle: saline with Tween-80) is 172 % of control; the T/C (endpoint: median tumor weight (est.), dose: 72.0 mg/kg/injection, schedule: Q07DX005 (ip), vehicle: saline with Tween-80) is 106 % of control.

Consider `CCOC(=O)C(N)CSC(=O)NC` (centres undefined), for which the T/C by setting is: (endpoint: median tumor weight change, dose: 100.0 mg/kg/injection, schedule: Q01DX001 (ip), vehicle: saline) 115 % of control; (endpoint: median tumor weight change, dose: 200.0 mg/kg/injection, schedule: Q01DX001 (ip), vehicle: saline) 81 % of control; (endpoint: median tumor weight change, dose: 250.0 mg/kg/injection, schedule: Q01DX001 (ip), vehicle: saline) 91 % of control and 111 % of control; (endpoint: median tumor weight change, dose: 400.0 mg/kg/injection, schedule: Q01DX001 (ip), vehicle: saline) 86 % of control; (endpoint: median tumor weight change, dose: 500.0 mg/kg/injection, schedule: Q01DX001 (ip), vehicle: saline) 53 % of control and 74 % of control; (endpoint: median tumor weight change, dose: 800.0 mg/kg/injection, schedule: Q01DX001 (ip), vehicle: saline) 96 % of control.

For the molecule `Cc1oc2c(C)c3oc(=O)cc(C)c3cc2c1CCl`, the T/C (endpoint: median tumor weight change, dose: 15.62 mg/kg/injection, schedule: Q01DX001 (ip), vehicle: saline with Tween-80) was 60 % of control; the T/C (endpoint: median tumor weight change, dose: 31.25 mg/kg/injection, schedule: Q01DX001 (ip), vehicle: saline with Tween-80) is 68 % of control; the T/C (endpoint: median tumor weight change, dose: 1000.0 mg/kg/injection, schedule: Q01DX001 (ip), vehicle: saline with Tween-80) is 42 % of control.

In the case of `Cn1c2nc(=O)n(-c3ccccc3)c(=O)c-2nc2c1CCCC2`, the T/C by setting is: (endpoint: median tumor weight (est.), dose: 12.5 mg/kg/injection, schedule: Q07DX005 (ip), vehicle: saline with Tween-80) 90 % of control; (endpoint: median tumor weight (est.), dose: 25.0 mg/kg/injection, schedule: Q07DX005 (ip), vehicle: saline with Tween-80) 108 % of control; (endpoint: median tumor weight (est.), dose: 50.0 mg/kg/injection, schedule: Q07DX005 (ip), vehicle: saline with Tween-80) 119 % of control; (endpoint: median tumor weight (est.), dose: 100.0 mg/kg/injection, schedule: Q07DX005 (ip), vehicle: saline with Tween-80) 100 % of control.

As to `[O-][n+]1c(CN2CCCCC2)nc2cccc3c2c1-c1ccccc1-3`, the T/C runs as follows: (endpoint: median tumor weight change, dose: 125.0 mg/kg/injection, schedule: Q01DX001 (ip), vehicle: saline with Tween-80) 78 % of control; (endpoint: median tumor weight change, dose: 250.0 mg/kg/injection, schedule: Q01DX001 (ip), vehicle: saline with Tween-80) 104 % of control; (endpoint: median tumor weight change, dose: 500.0 mg/kg/injection, schedule: Q01DX001 (ip), vehicle: saline with Tween-80) 84 % of control.

On to `COC(=O)C[C@](O)(CCC(C)(C)O)C(=O)O[C@@H]1C(OC)=C[C@]23CCCN2CCc2cc4c(cc2[C@H]13)OCO4`, for which the T/C is, setting by setting: (endpoint: median tumor weight change, dose: 1.25 mg/kg/injection, schedule: Q01DX001 (ip), vehicle: saline) 80 % of control and 96 % of control; (endpoint: median tumor weight change, dose: 2.5 mg/kg/injection, schedule: Q01DX001 (ip), vehicle: saline) 89 % of control and 94 % of control; (endpoint: median tumor weight change, dose: 10.0 mg/kg/injection, schedule: Q01DX001 (ip), vehicle: saline) 68 % of control.

`Nc1cc(Cl)c2[nH]cnc2n1`: the T/C (endpoint: median tumor weight change, dose: 62.5 mg/kg/injection, schedule: Q01DX001 (ip), vehicle: distilled water + Tween-80) was 76 % of control; the T/C (endpoint: median tumor weight change, dose: 62.5 mg/kg/injection, schedule: Q01DX001 (ip), vehicle: water) is 111 % of control; the T/C (endpoint: median tumor weight change, dose: 125.0 mg/kg/injection, schedule: Q01DX001 (ip), vehicle: distilled water + Tween-80) is 88 % of control; the T/C (endpoint: median tumor weight change, dose: 125.0 mg/kg/injection, schedule: Q01DX001 (ip), vehicle: water) is 100 % of control; the T/C (endpoint: median tumor weight change, dose: 250.0 mg/kg/injection, schedule: Q01DX001 (ip), vehicle: distilled water + Tween-80) is 58 % of control; the T/C (endpoint: median tumor weight change, dose: 250.0 mg/kg/injection, schedule: Q01DX001 (ip), vehicle: water) was 92 % of control. The T/C reads like this: (endpoint: median tumor weight change, dose: 500.0 mg/kg/injection, schedule: Q01DX001 (ip), vehicle: distilled water + Tween-80) 82 % of control; (endpoint: median tumor weight change, dose: 500.0 mg/kg/injection, schedule: Q01DX001 (ip), vehicle: water) 73 % of control; (endpoint: median tumor weight change, dose: 1000.0 mg/kg/injection, schedule: Q01DX001 (ip), vehicle: distilled water + Tween-80) 42 % of control; (endpoint: median tumor weight change, dose: 1000.0 mg/kg/injection, schedule: Q01DX001 (ip), vehicle: water) 80 % of control.

Regarding `C[C@@H](CN1CC(=O)NC(=O)C1)N1CC(=O)NC(=O)C1`, the T/C was 75 % of control (endpoint: median tumor weight (est.), dose: 25.0 mg/kg/injection, schedule: Q07DX005 (ip), vehicle: saline); 39 % of control (endpoint: median tumor weight (est.), dose: 50.0 mg/kg/injection, schedule: Q07DX005 (ip), vehicle: saline); 52 % of control under setting [2]; 85 % of control (endpoint: median tumor weight (est.), dose: 100.0 mg/kg/injection, schedule: Q07DX005 (ip), vehicle: saline); 107 % of control under setting [4]; 46 % of control (endpoint: median tumor weight (est.), dose: 200.0 mg/kg/injection, schedule: Q07DX005 (ip), vehicle: saline). Besides, the T/C is 37 % of control under setting [3]; 45 % of control (endpoint: median tumor weight (est.), dose: 400.0 mg/kg/injection, schedule: Q07DX005 (ip), vehicle: saline); 10 % of control (endpoint: median tumor weight (est.), dose: 800.0 mg/kg/injection, schedule: Q07DX005 (ip), vehicle: Klucel (hydroxypropylcellulose) (HPC)); 13 % of control (endpoint: median tumor weight (est.), dose: 800.0 mg/kg/injection, schedule: Q07DX005 (ip), vehicle: saline).

As for `C/C=C(\C)C(=O)OC1C(C)C2(O)C(C=C(CO)CC3(O)C(=O)C(C)=CC32)C2C(C)(C)C12OC(=O)CCCCCCCCC` (centres undefined), the T/C (endpoint: median tumor weight (est.), dose: 0.06 mg/kg/injection, schedule: Q07DX005 (ip), vehicle: saline + alcohol) was 91 % of control; the T/C (endpoint: median tumor weight (est.), dose: 0.12 mg/kg/injection, schedule: Q07DX005 (ip), vehicle: saline + alcohol) is 76 % of control; the T/C (endpoint: median tumor weight (est.), dose: 0.25 mg/kg/injection, schedule: Q07DX005 (ip), vehicle: saline + alcohol) was 92 % of control.
